# According to publication PMC10620772, “Design, synthesis, and biological evaluation of new pyrimidine-5-carbonitrile derivatives as novel anti-cancer, dual EGFR^WT/COX-2 inhibitors with docking studies” (RSC Advances, 2023):
# What was measured:
# Format in all cases: cell-based, human
# U251 = assay: NCI60 antitumor screening; settings: for inhibition at 10 µM: Homo sapiens, U-251, 10 μM single dose, U251 (CNS cancer), read-out: growth inhibition percent (GI%)
# OVCAR-5 = assay: NCI60 antitumor screening; settings: for inhibition at 10 µM: Homo sapiens, 10 μM single dose, OVCAR-5 (ovarian cancer), read-out: growth inhibition percent (GI%)
# SK-MEL-2 = assay: NCI60 antitumor screening; settings: for inhibition at 10 µM: Homo sapiens, 10 μM single dose, SK-MEL-2 (melanoma), read-out: growth inhibition percent (GI%)
# ACHN = assay: NCI60 antitumor screening; settings: for inhibition at 10 µM: Homo sapiens, 10 μM single dose, ACHN (renal cancer), read-out: growth inhibition percent (GI%)
# BT-549 = assay: NCI60 antitumor screening; settings: for inhibition at 10 µM: Homo sapiens, 10 μM single dose, BT-549 (breast cancer), read-out: growth inhibition percent (GI%)
# MDA-MB-231/ATCC = assay: NCI60 antitumor screening; settings: for inhibition at 10 µM: Homo sapiens, 10 μM single dose, MDA-MB-231/ATCC (breast cancer), read-out: growth inhibition percent (GI%)
# NCI-H460 = assay: NCI60 antitumor screening; settings: for inhibition at 10 µM: Homo sapiens, 10 μM single dose, NCI-H460 (non-small cell lung cancer), read-out: growth inhibition percent (GI%)
# NCI/ADR-RES = assay: NCI60 antitumor screening; settings: for inhibition at 10 µM: Homo sapiens, 10 μM single dose, NCI/ADR-RES (ovarian cancer), read-out: growth inhibition percent (GI%)
# HCC-2998 = assay: NCI60 antitumor screening; settings: for inhibition at 10 µM: Homo sapiens, 10 μM single dose, HCC-2998 (colon cancer), read-out: growth inhibition percent (GI%)
# SNB-75 = assay: NCI60 antitumor screening; settings: for GI%: 10 μM one-dose, Table 1; for inhibition at 10 µM: Homo sapiens, 10 μM single dose, SNB-75 (CNS cancer), read-out: growth inhibition percent (GI%)
# NCI60 cell lines panel = assay: NCI60 antitumor screening, full panel; settings: for inhibition at 10 µM: Homo sapiens, 10 μM single dose, mean over NCI60 cell lines, read-out: Mean growth inhibition percent (GI%); for One-dose activity over the NCI60 panel: 10 μM
# Summary of the method: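 Percent growth inhibition (GI%) was recorded for each of the NCI60 lines, spanning leukaemia, lung, colon, CNS, melanoma, ovarian, renal, prostate and breast cancers, after exposure to compounds at one concentration, 10 μM.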
# COLO 205 = assay: NCI60 antitumor screening; settings: for inhibition at 10 µM: Homo sapiens, 10 μM single dose, COLO 205 (colon cancer), read-out: growth inhibition percent (GI%)
# SNB-19 = assay: NCI60 antitumor screening; settings: for inhibition at 10 µM: Homo sapiens, 10 μM single dose, SNB-19 (CNS cancer), read-out: growth inhibition percent (GI%)
# OVCAR-4 = assay: NCI60 antitumor screening; settings: for GI%: 10 μM one-dose; for inhibition at 10 µM: Homo sapiens, 10 μM single dose, OVCAR-4 (ovarian cancer), read-out: growth inhibition percent (GI%)
# MCF7 = assay: NCI60 antitumor screening; settings: for inhibition at 10 µM: Homo sapiens, 10 μM single dose, MCF7 (breast cancer), read-out: growth inhibition percent (GI%)
# HS 578T = assay: NCI60 antitumor screening; settings: for GI%: 10 μM one-dose; for inhibition at 10 µM: Homo sapiens, 10 μM single dose, HS 578T (breast cancer), read-out: growth inhibition percent (GI%)
# SF-295 = assay: NCI60 antitumor screening; settings: for inhibition at 10 µM: Homo sapiens, 10 μM single dose, SF-295 (CNS cancer), read-out: growth inhibition percent (GI%)
# SF-268 = assay: NCI60 antitumor screening; settings: for inhibition at 10 µM: Homo sapiens, 10 μM single dose, SF-268 (CNS cancer), read-out: growth inhibition percent (GI%)
# MOLT-4 = assay: NCI60 antitumor screening; settings: for inhibition at 10 µM: Homo sapiens, 10 μM single dose, MOLT-4 (leukaemia), read-out: growth inhibition percent (GI%)
# SR = assay: NCI60 antitumor screening; settings: for GI%: 10 μM one-dose, Table 1; for inhibition at 10 µM: Homo sapiens, 10 μM single dose, SR (leukaemia), read-out: growth inhibition percent (GI%)
# KM12 = assay: NCI60 antitumor screening; settings: for inhibition at 10 µM: Homo sapiens, 10 μM single dose, KM12 (colon cancer), read-out: growth inhibition percent (GI%)
# EKVX = assay: NCI60 antitumor screening; settings: for inhibition at 10 µM: Homo sapiens, 10 μM single dose, EKVX (non-small cell lung cancer), read-out: growth inhibition percent (GI%)
# SK-OV-3 = assay: NCI60 antitumor screening; settings: for inhibition at 10 µM: Homo sapiens, 10 μM single dose, SK-OV-3 (ovarian cancer), read-out: growth inhibition percent (GI%)
compound,measurement,setting,value
"CN1CCN(c2nc(SCc3ccc(F)cc3)nc(-c3ccc(F)cc3)c2C#N)CC1 [4j, 2-((4-Fluorobenzyl)thio)-4-(4-fluorophenyl)-6-(4-methylpiperazin-1-yl)pyrimidine-5-carbonitrile]",inhibition at 10 µM,U251,26.2%
same,inhibition at 10 µM,OVCAR-5,17.4%
same,inhibition at 10 µM,SK-MEL-2,< 10%
same,inhibition at 10 µM,ACHN,39.1%
same,inhibition at 10 µM,BT-549,32%
same,inhibition at 10 µM,MDA-MB-231/ATCC,45.8%
same,inhibition at 10 µM,NCI-H460,< 10%
same,inhibition at 10 µM,NCI/ADR-RES,42.9%
same,inhibition at 10 µM,HCC-2998,< 10%
same,GI%,SNB-75,74.91%
same,inhibition at 10 µM,SNB-75,74.9%
same,inhibition at 10 µM,NCI60 cell lines panel,25.1%
same,inhibition at 10 µM,COLO 205,< 10%
same,inhibition at 10 µM,SNB-19,40.3%
same,GI%,OVCAR-4; Table 1,— (GI value > 70%)
same,inhibition at 10 µM,OVCAR-4,24.1%
same,inhibition at 10 µM,MCF7,14.8%
same,GI%,HS 578T; Table 1,— (GI value > 70%)
same,inhibition at 10 µM,HS 578T,60.4%
same,inhibition at 10 µM,SF-295,56.8%
same,inhibition at 10 µM,SF-268,15.8%
same,inhibition at 10 µM,MOLT-4,< 10%
same,GI%,SR,— (GI value > 70%)
same,inhibition at 10 µM,SR,< 10%
same,inhibition at 10 µM,KM12,< 10%
same,inhibition at 10 µM,EKVX,18.4%
same,inhibition at 10 µM,SK-OV-3,55.5%
"Cc1ccc(CSc2nc(-c3ccc(F)cc3)c(C#N)c(N3CCN(C)CC3)n2)cc1 [4l, 4-(4-Fluorophenyl)-2-((4-methylbenzyl)thio)-6-(4-methylpiperazin-1-yl) pyrimidine-5-carbonitrile]",inhibition at 10 µM,U251,< 10%
same,inhibition at 10 µM,OVCAR-5,< 10%
same,inhibition at 10 µM,SK-MEL-2,< 10%
same,inhibition at 10 µM,ACHN,29.9%
same,inhibition at 10 µM,BT-549,10.8%
same,inhibition at 10 µM,MDA-MB-231/ATCC,28.9%
same,inhibition at 10 µM,NCI-H460,< 10%
same,inhibition at 10 µM,NCI/ADR-RES,12.7%
same,inhibition at 10 µM,HCC-2998,< 10%
same,inhibition at 10 µM,SNB-75,35.6%
same,One-dose activity over the NCI60 panel,NCI60 cell lines panel,moderate activity against numerous cell lines
same,inhibition at 10 µM,NCI60 cell lines panel,11.2%
same,inhibition at 10 µM,COLO 205,< 10%
same,inhibition at 10 µM,SNB-19,14.3%
same,inhibition at 10 µM,OVCAR-4,< 10%
same,inhibition at 10 µM,MCF7,12.8%
same,inhibition at 10 µM,HS 578T,31.1%
same,inhibition at 10 µM,SF-295,17.6%
same,inhibition at 10 µM,SF-268,< 10%
same,inhibition at 10 µM,MOLT-4,10.5%
same,inhibition at 10 µM,SR,< 10%
same,inhibition at 10 µM,KM12,< 10%
same,inhibition at 10 µM,EKVX,12.5%
same,inhibition at 10 µM,SK-OV-3,< 10%
"Cc1ccc(CSc2nc(-c3ccc(F)cc3)c(C#N)c(N3CCNCC3)n2)cc1 [4h, 4-(4-Fluorophenyl)-2-((4-methylbenzyl)thio)-6-(piperazin-1-yl)pyrimidine-5-carbonitrile]",inhibition at 10 µM,U251,< 10%
same,inhibition at 10 µM,OVCAR-5,< 10%
same,inhibition at 10 µM,SK-MEL-2,< 10%
same,inhibition at 10 µM,ACHN,< 10%
same,inhibition at 10 µM,BT-549,< 10%
same,inhibition at 10 µM,MDA-MB-231/ATCC,< 10%
same,inhibition at 10 µM,NCI-H460,< 10%
same,inhibition at 10 µM,NCI/ADR-RES,< 10%
same,inhibition at 10 µM,HCC-2998,< 10%
same,inhibition at 10 µM,SNB-75,19.5%
same,One-dose activity over the NCI60 panel,NCI60 cell lines panel,inactive
same,inhibition at 10 µM,NCI60 cell lines panel,< 10%
same,inhibition at 10 µM,COLO 205,< 10%
same,inhibition at 10 µM,SNB-19,< 10%
same,inhibition at 10 µM,OVCAR-4,< 10%
same,inhibition at 10 µM,MCF7,< 10%
same,inhibition at 10 µM,HS 578T,10.1%
same,inhibition at 10 µM,SF-295,< 10%
same,inhibition at 10 µM,SF-268,< 10%
same,inhibition at 10 µM,MOLT-4,< 10%
same,inhibition at 10 µM,SR,< 10%
same,inhibition at 10 µM,KM12,< 10%
same,inhibition at 10 µM,EKVX,< 10%
same,inhibition at 10 µM,SK-OV-3,< 10%
"CN1CCN(c2nc(SCc3ccccc3)nc(-c3ccc(F)cc3)c2C#N)CC1 [4i, 2-(Benzylthio)-4-(4-fluorophenyl)-6-(4-methylpiperazin-1-yl) pyrimidine-5-carbonitrile]",inhibition at 10 µM,U251,< 10%
same,inhibition at 10 µM,OVCAR-5,< 10%
same,inhibition at 10 µM,SK-MEL-2,< 10%
same,inhibition at 10 µM,ACHN,14.8%
same,inhibition at 10 µM,BT-549,< 10%
same,inhibition at 10 µM,MDA-MB-231/ATCC,15.9%
same,inhibition at 10 µM,NCI-H460,35.1%
same,inhibition at 10 µM,NCI/ADR-RES,< 10%
same,inhibition at 10 µM,HCC-2998,< 10%
same,GI%,SNB-75,— (GI value > 70%)
same,inhibition at 10 µM,SNB-75,41%
same,inhibition at 10 µM,NCI60 cell lines panel,24.3%
same,inhibition at 10 µM,COLO 205,13.6%
same,inhibition at 10 µM,SNB-19,10%
same,GI%,OVCAR-4; Table 1,— (GI value > 70%)
same,inhibition at 10 µM,OVCAR-4,22.5%
same,inhibition at 10 µM,MCF7,30.8%
same,GI%,HS 578T; Table 1,— (GI value > 70%)
same,inhibition at 10 µM,HS 578T,32%
same,inhibition at 10 µM,SF-295,12.3%
same,inhibition at 10 µM,SF-268,26.8%
same,inhibition at 10 µM,MOLT-4,49.8%
same,GI%,SR,70.98%
same,inhibition at 10 µM,SR,71%
same,inhibition at 10 µM,KM12,19.1%
same,inhibition at 10 µM,EKVX,20.2%
same,inhibition at 10 µM,SK-OV-3,< 10%
"N#Cc1c(-c2ccc(F)cc2)nc(SCc2ccc([N+](=O)[O-])cc2)nc1N1CCNCC1 [4g, 4-(4-Fluorophenyl)-2-((4-nitrobenzyl)thio)-6-(piperazin-1-yl) pyrimidine-5-carbonitrile]",inhibition at 10 µM,U251,< 10%
same,inhibition at 10 µM,OVCAR-5,< 10%
same,inhibition at 10 µM,SK-MEL-2,< 10%
same,inhibition at 10 µM,ACHN,< 10%
same,inhibition at 10 µM,BT-549,< 10%
same,inhibition at 10 µM,MDA-MB-231/ATCC,< 10%
same,inhibition at 10 µM,NCI-H460,< 10%
same,inhibition at 10 µM,NCI/ADR-RES,< 10%
same,inhibition at 10 µM,HCC-2998,< 10%
same,inhibition at 10 µM,SNB-75,15.9%
same,One-dose activity over the NCI60 panel,NCI60 cell lines panel,inactive
same,inhibition at 10 µM,NCI60 cell lines panel,< 10%
same,inhibition at 10 µM,COLO 205,< 10%
same,inhibition at 10 µM,SNB-19,< 10%
same,inhibition at 10 µM,OVCAR-4,< 10%
same,inhibition at 10 µM,MCF7,< 10%
same,inhibition at 10 µM,HS 578T,< 10%
same,inhibition at 10 µM,SF-295,< 10%
same,inhibition at 10 µM,SF-268,< 10%
same,inhibition at 10 µM,MOLT-4,< 10%
same,inhibition at 10 µM,SR,< 10%
same,inhibition at 10 µM,KM12,< 10%
same,inhibition at 10 µM,EKVX,< 10%
same,inhibition at 10 µM,SK-OV-3,< 10%
"Cc1ccc(CSc2nc(-c3ccc(F)cc3)c(C#N)c(N3CCOCC3)n2)cc1 [4d, 4-(4-Fluorophenyl)-2-((4-methylbenzyl)thio)-6-morpholinopyrimidine-5-carbonitrile]",GI%,U251; 10 μM one-dose,13.13%
same,GI%,OVCAR-5; 10 μM one-dose,— (GI% < 10)
same,GI%,SK-MEL-2; 10 μM one-dose,— (GI% < 10)
same,GI%,ACHN; 10 μM one-dose,37.30%
same,GI%,BT-549; 10 μM one-dose,11.94%
same,GI%,MDA-MB-231/ATCC; 10 μM one-dose,31.92%
same,GI%,NCI-H460; 10 μM one-dose,— (GI% < 10)
same,GI%,NCI/ADR-RES; 10 μM one-dose,— (GI% < 10)
same,GI%,HCC-2998; 10 μM one-dose,— (GI% < 10)
same,GI%,SNB-75,88.04%
same,Mean GI%,"NCI60 cell lines panel; 10 μM one-dose, mean over NCI60",14.01%
same,GI%,COLO 205; 10 μM one-dose,— (GI% < 10)
same,GI%,SNB-19; 10 μM one-dose,44.48%
same,GI%,OVCAR-4,20.15%
same,GI%,OVCAR-4; Table 1,— (GI value > 70%)
same,GI%,MCF7; 10 μM one-dose,11.76%
same,GI%,HS 578T,48.85%
same,GI%,HS 578T; Table 1,— (GI value > 70%)
same,GI%,SF-295; 10 μM one-dose,32.25%
same,GI%,SF-268; 10 μM one-dose,22.32%
same,GI%,MOLT-4; 10 μM one-dose,— (GI% < 10)
same,GI%,SR,— (GI value > 70%)
same,GI%,KM12; 10 μM one-dose,— (GI% < 10)
same,GI%,EKVX; 10 μM one-dose,13.10%
same,GI%,SK-OV-3; 10 μM one-dose,11.69%
